# Data reported in article PMC6021345 (Oncotarget, 2018).
# How the values were obtained:
# CES1 = target: T1, CES1 (Homo sapiens, UniProt P23141); experiment: In vitro CES1 enzyme-based assay (4-NPA substrate); assay type: biochemical; conditions: even at 300μM
# T1 construct: purchased Sigma-Aldrich E0162
# T1 sequence (P23141 18-567): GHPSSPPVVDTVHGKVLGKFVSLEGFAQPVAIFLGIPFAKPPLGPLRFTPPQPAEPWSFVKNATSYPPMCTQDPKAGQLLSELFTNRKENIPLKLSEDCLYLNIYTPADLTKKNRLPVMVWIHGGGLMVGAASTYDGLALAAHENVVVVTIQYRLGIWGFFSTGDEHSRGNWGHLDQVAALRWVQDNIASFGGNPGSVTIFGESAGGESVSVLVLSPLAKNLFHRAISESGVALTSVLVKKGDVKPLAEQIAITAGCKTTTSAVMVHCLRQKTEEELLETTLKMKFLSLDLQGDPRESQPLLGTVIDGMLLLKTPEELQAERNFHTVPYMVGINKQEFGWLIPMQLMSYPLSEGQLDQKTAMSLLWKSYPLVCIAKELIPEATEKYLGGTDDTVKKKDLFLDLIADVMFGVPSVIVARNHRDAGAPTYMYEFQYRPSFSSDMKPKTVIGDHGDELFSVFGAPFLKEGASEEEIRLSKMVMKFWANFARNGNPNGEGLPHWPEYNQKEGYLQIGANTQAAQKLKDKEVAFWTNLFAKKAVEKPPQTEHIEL
# Method: (§1) The recombinant purified CES2 and CES1 enzymes, and 4-NPA were purchased from Sigma-Aldrich with product IDs E0412, E0162, and N8130, respectively. […] All compounds were dissolved in DMSO at 10mM. In the screening assay, the compounds were diluted in 50mM HEPES and the final compound concentration in the reaction system was adjusted to 50μM. […] The assays were conducted at 300μl total volume in 96-well plates. Reactions consisted of the following: 100μL 50mM HEPES with 20 units of enzyme, 10μL compound solution (various concentrations), 2μL 300mM 4-NAP, and 188μL 50mM HEPES, pH 7.4. The compound and 4-NAP solution were added into the plate first and then the reaction was initiated by the addition of enzyme solution. After 15 minutes incubation at 25°C, absorbance was measured using a microplate reader at 405nm in FLUOstar Omega Microplate Reader. The CES1/CES2 inhibitor compound bis-(4-nitrophenyl) phosphate (BNPP) was used as positive control in all the assays.
# CES2 = target: T2, CES2 (Homo sapiens, UniProt O00748); experiment: In vitro CES2 enzyme-based assay (4-NPA substrate); assay type: biochemical
# T2 construct: purchased Sigma-Aldrich E0412
# T2 sequence (O00748 27-559): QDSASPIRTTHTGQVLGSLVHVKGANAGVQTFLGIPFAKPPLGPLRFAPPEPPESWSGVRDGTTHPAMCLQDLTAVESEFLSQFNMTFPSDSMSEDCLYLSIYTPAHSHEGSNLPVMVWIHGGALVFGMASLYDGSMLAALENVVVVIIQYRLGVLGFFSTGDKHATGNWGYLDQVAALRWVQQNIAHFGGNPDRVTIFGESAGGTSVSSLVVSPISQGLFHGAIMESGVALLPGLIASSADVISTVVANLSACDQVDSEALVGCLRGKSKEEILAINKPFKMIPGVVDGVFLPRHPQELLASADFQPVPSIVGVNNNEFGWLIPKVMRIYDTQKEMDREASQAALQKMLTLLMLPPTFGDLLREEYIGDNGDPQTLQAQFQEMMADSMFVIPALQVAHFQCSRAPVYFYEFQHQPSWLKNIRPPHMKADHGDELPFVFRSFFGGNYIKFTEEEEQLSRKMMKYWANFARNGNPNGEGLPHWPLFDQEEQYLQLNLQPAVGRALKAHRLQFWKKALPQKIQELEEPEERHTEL
# Method: as §1
# [1] = system: murine CT-26 tumor-bearing immuno-competent mice; experiment: CPT-11 induced diarrhea in CT-26 tumor-bearing mice; assay type: in vivo; conditions: for mice that had to be euthanized: by day 12; for mice with rapid recovery in body weight: 5 days after cessation of CPT-11; for mice that never showed any signs of diarrhea: through end of study
# Method: We tested the effect of Hst (20 and 100 mg/kg) on murine CT-26 tumor-bearing immuno-competent mice with CPT-11 (50 mg/kg, roughly equivalent to 5 mg/kg typical human CPT-11 dose) intraperitoneally injected daily from day 1-9. Hst was given from day 1-15 and 30 min before CPT-11 administration on day 1-9. Changes of stool character were recorded twice daily to determine the severity of diarrhea. Fecal staining of skin or lose watery stool was determined as diarrhea but not severe, and only the black sticky stool (bloody diarrhea) was determined as severe diarrhea.
# (§2) CT-26 cell line was used to make the tumor bearing mouse model by s.c. injection of 0.02mL cells in PBS at 5×10^7 cells/mL into the posterior mid-dorsum. Tumor volumes were estimated by the formula π/6×a^2×b, where a is the short and b is the long axis. When tumor volume reached roughly 100mm^3 (~10 days after implantation, defined as day 1), mice were randomly separated into 5 groups, 1). CPT-11 only group, receiving CPT-11 50mg/kg + vehicle 2). CPT-11+Hst 20mg/kg, 3). CPT-11+Hst 100mg/kg, 4). Hst 100mg/kg only, and 5) vehicle control group. CPT-11 was administrated by i.p. injection from day 1 to day 9 while Hst were administrated by oral gavage from day 1 to the end of study. An equivalent dosage of saline or CMC were administrated by i.p injection and oral gavage as vehicle, respectively. Mice were examined daily for signs of diarrhea (fecal staining of skin, lose watery stool) and bloody diarrhea (black sticky stool), as well as tumor growth. After sacrifice, jejunum, ileum and colon samples were dissected. Tissues were formalin-fixed and paraffin embedded for histological examination using 4μm-thick, 100μm step serial sections stained with H&E. A histologic score to evaluate inflammation, epithelial changes and mucosa architecture for each slide was calculated as described previously. For immunohistochemical staining, sections were stained with antibodies against Ki67, β-catenin, F4/80, Ly-6B.2 and pSTAT3 (Tyr705) overnight at 4°C. Slides were then washed and stained with the appropriate secondary antibodies. Mounted slides were examined under Olympus BX61 upright microscopy (HMRI Advanced Cellular and Tissue Microscope Core Facility).
# [2] = set-up: method as in PMID 10725311; conditions: after i.v. dosing radiolabeled drug; cited from earlier work
# [3] = set-up: method as in printed; conditions: library annotation; ref not given; cited from earlier work
# [4] = system: different cancer cell lines including CT-26; experiment: Cell viability analysis on cancer cell lines; assay type: cell-based; conditions: Hst alone
# Method: (§3) CT-26 (murine colon cancer), HCT-116 (human colon cancer), CRL-1739 (human stomach gastric cancer) and CRL-1682 (human pancreatic cancer) cell lines were purchased form ATCC. All cells were cultured in T-75 flasks (Falcon). All media were purchased from Life Technologies and supplemented with 10% fetal bovine serum (Sigma) and 1% penicillin-streptomycin (Fisher Scientific). CT-26 and CRL-1682 were cultured in RPMI-1640 medium. CRL-1739 and HCT-116 were cultured in DMEM medium. All cells were cultured in a 37° C, 5% CO2 incubator.
# CT-26 tumor = experiment: Tumor growth in CT-26 tumor-bearing mice; assay type: in vivo
# Method: as §2, with “For immunohistochemical staining, sections were stained with antibodies against Ki67, β-catenin, F4/80, Ly-6B.2 and pSTAT3 (Tyr705) overnight at 4°C. Slides were then washed and stained with the appropriate secondary antibodies. Mounted slides were examined under Olympus BX61 upright microscopy (HMRI Advanced Cellular and Tissue Microscope Core Facility).” left out
# p-STAT3 = experiment: Immunohistochemistry of p-STAT3 in mouse tumors; assay type: in vivo, mice; conditions: CPT-11 + Hst
# Method: as §2, with “For immunohistochemical staining, sections were stained with antibodies against Ki67, β-catenin, F4/80, Ly-6B.2 and pSTAT3 (Tyr705) overnight at 4°C. Slides were then washed and stained with the appropriate secondary antibodies. Mounted slides were examined under Olympus BX61 upright microscopy (HMRI Advanced Cellular and Tissue Microscope Core Facility).” left out
# small intestinal CES = experiment: Ex vivo small intestinal CES assay (microsomes) after oral Hst; assay type: in vivo, mice; conditions: 20 mg/kg Hst oral, 4h after single dose, n=5
# Method: (§4) Single oral dose of 135 mg Hst in healthy adult subjects was rapidly absorbed and the concentration in plasma observed 20 min after dosing and reached a peak in 4h.
# (§5) Microsomes of the liver and small intestinal epithelium were prepared from animals with or without Hst treatment. Animals were killed by exsanguination at 4h after single oral dosing of Hst. Their liver and small intestines were removed immediately and cooled in cold physiological saline. Small intestine epithelium was scraped from the intestine with slide glass. Tissues were homogenized in 1.15% KCl on ice by a Teflon homogenizer, followed by centrifugation at 9,000×g for 10min at 4°C. The supernatant was re-centrifuged at 105,000×g for 60 min at 4°C, resulting in sedimentation of the microsome. The microsomal pellet was re-suspended in 1.15% KCl. To measure CES activity, microsomes (protein content: 1 mg/mL) were incubated with 4-NAP solution in phosphate-buffered saline at 37°C, and 50μL aliquots were sampled up to 20 min.
# liver CES = experiment: Ex vivo liver CES assay (microsomes) after oral Hst; assay type: in vivo, mice; conditions: 20 mg/kg Hst oral
# Method: as §4, §5
# STAT3 = STAT3 Cignal Reporter Assay; assay type: cell-based; conditions: HEK293 cells, Hst 24h, IL-6 100 ng/ml 90 min
# Method: STAT3 transcription factor activity was measured using the Cignal STAT3 Reporter Assay Kit (Qiagen) according to the manufacturers’ instructions. HEK293 cells were transfected with the Renilla luciferase reporter plasmid. Twenty-four hours later, cells were treated with Hst for 24h, and were incubated with 100 ng/ml IL-6 for 90 min before lysed. Subsequently, Renilla luciferase activity was measured in a microplate reader. Relative transcription factor activity was calculated by dividing relative light units (RLU) of the STAT3-specific reporter and the negative control reporter.
# intestinal inflammation = experiment: Intestinal inflammation in CPT-11 treated mice; assay type: in vivo
# Method: as §2, with “For immunohistochemical staining, sections were stained with antibodies against Ki67, β-catenin, F4/80, Ly-6B.2 and pSTAT3 (Tyr705) overnight at 4°C. Slides were then washed and stained with the appropriate secondary antibodies. Mounted slides were examined under Olympus BX61 upright microscopy (HMRI Advanced Cellular and Tissue Microscope Core Facility).” left out
# [5] = single oral dose of 135 mg Hst, healthy adult subjects, cited from earlier work
# p-STAT3 (Tyr705) = experiment: Western blot of IL-6 induced p-STAT3 (Tyr705) in cancer cell lines; assay type: cell-based; conditions: various cancer cell lines, IL-6 100ng/ml 90 min
# Method: as §3
# RIPA buffer was purchased form Fisher Scientific. Xpert protease inhibitor cocktail solution 100X and Xpert phosphatase inhibitor cocktail solution 100X were purchased from GenDEPOT. 4–20% Mini-PROTEAN® TGX™ Gel and Trans-Blot® Turbo™ Mini Nitrocellulose Transfer Packs were purchased form Bio-Rad. Rabbit NF-κB and phospho-Stat3 (Tyr705) primary antibody, mouse β-Actin (8H10D10) primary antibody, and anti-mouse IgG HRP conjugated, anti-rabbit IgG HRP conjugated secondary antibody were purchased from Cell Signaling Technology.
# [6] = set-up: method as in printed; conditions: ref not given; cited from earlier work
# [7] = set-up: method as in printed; conditions: high dose loperamide; ref not given; cited from earlier work
smiles,measurement,setting,value
"O=C(/C=C/c1ccccc1)c1ccc(O)cc1O [2’, 4’-dihydroxychalcone]",CES1 inhibition,CES1,no significant CES1 inhibition
same,selectivity for CES2 (over CES1),CES2; CES2 vs CES1,> 100 fold
same,IC50,"CES2; recombinant CES2, 4-NPA, 15 min, 25°C",1660 ± 690 nM
"CCc1c2c(nc3ccc(OC(=O)N4CCC(N5CCCCC5)CC4)cc13)-c1cc3c(c(=O)n1C2)COC(=O)[C@]3(O)CC [CPT-11, irinotecan]",mice that had to be euthanized,[1]; CPT-11 only group,all
same,mice that developed some degree of diarrhea,"[1]; mouse, in vivo, 15 day",100%
same,fraction found unchanged in human bile,[2],30%
"CC1(C)CCC2=C(O1)c1ccccc1C(=O)C2=O [compound 1004, beta-Lapachone]",solubility remark,[3],"poorly soluble, anti-tumor at mM level, combination and radiosensitizing activity"
COc1ccc([C@@H]2CC(=O)c3c(O)cc(O)cc3O2)cc1O [hesperetin],mice with severe diarrhea,"[1]; CPT-11 + Hst 20 mg/kg oral, day 11",2 out of 10
same,mice with rapid recovery in body weight,[1]; CPT-11 + Hst 20 mg/kg,20%
same,mice that had to be euthanized,[1]; CPT-11 + Hst 20 mg/kg,40%
same,body weight lost on average,"[1]; CPT-11 + Hst 20 mg/kg, day 11",20%
same,mice that never showed any signs of diarrhea,[1]; CPT-11 + Hst 20 mg/kg,20%
same,mice with severe diarrhea,"[1]; CPT-11 + Hst 100 mg/kg oral, until day 12",2 out of 10
same,mice with rapid recovery in body weight,[1]; CPT-11 + Hst 100 mg/kg,20%
same,mice that had to be euthanized,[1]; CPT-11 + Hst 100 mg/kg,20%
same,body weight lost on average,"[1]; CPT-11 + Hst 100 mg/kg, day 11",17%
same,mice that never showed any signs of diarrhea,[1]; CPT-11 + Hst 100 mg/kg,30%
same,severe diarrhea prohibited,"[1]; oral Hst, CPT-11 administered tumor-bearing mice",80%
same,CES1 inhibition,CES1,no significant CES1 inhibition
same,cytotoxicity in vitro,[4],did not show any potent cytotoxicity effects
same,effect on in vivo antitumor activity of CPT-11,"CT-26 tumor; Hst 20 and 100 mg/kg + CPT-11, starting 5-6 days after Hst treatment",enhanced the in vivo antitumor activity of CPT-11
same,"tumor growth, Hst alone",CT-26 tumor; Hst alone 100 mg/kg,mild inhibition on tumor growth
same,p-STAT3 expression in the tumors,p-STAT3,remarkably suppressed
same,small intestinal CES activity,small intestinal CES,2.28±1.42 nmol/min/g protein
same,reduction of small intestinal CES activity,small intestinal CES; vs control,56%
same,liver CES activity,"liver CES; 4h after single dose, n=5",8.89±0.74 nmol/min/g protein
same,change of liver CES activity,liver CES; vs control,did not have an obvious change
same,concentration inhibiting IL-6 induced STAT3 reporter activity,STAT3,20 to 100 µM
same,"infiltration of inflammatory cells (neutrophils, macrophages) and cytokine release (TNF-α, IL-6)",intestinal inflammation; dose dependent,blocked
same,tissue expression of NF-κB,intestinal inflammation; mouse small intestine,significantly down-regulated
same,time after dosing at which concentration in plasma was observed,[5],20 min
same,time to peak plasma concentration,[5],4 h
same,Cmax,[5]; read-out: mean peak plasma concentration (Cmax),2730 ± 1350 nM
same,IL-6 induced p-STAT3 (Tyr705) expression,p-STAT3 (Tyr705),significant down-regulation
COc1ccc([C@@H]2CC(=O)c3c(O)cc(O[C@@H]4O[C@H](CO[C@@H]5O[C@@H](C)[C@H](O)[C@@H](O)[C@H]5O)[C@@H](O)[C@H](O)[C@H]4O)cc3O2)cc1O [hesperidin],fraction metabolized in cells to generate Hst,[6],99%
CN(C)C(=O)C(CCN1CCC(O)(c2ccc(Cl)cc2)CC1)(c1ccccc1)c1ccccc1 [loperamide],incidence of grade 3-4 diarrheas,[7],28-40 % of treated patients
